Experimental data as given in patent publication US9586947B2, “Imidazoline derivatives, preparation methods thereof, and their applications in medicine” (priority 2012, dated 2017).
Where two headings read alike, the source gives them in different places.

How the values were obtained:
[1] = system: PSA secretion of LNCaP cells; test: Inhibitory activity on PSA secretion of LNCaP cells; type: cell-based; conditions: Homo sapiens, 96 h, read-out: IC50 (inhibition of PSA secretion of LNCaP cells)
Protocol: The following in vitro assay was performed to determine the activity of the compounds of the present invention for inhibiting prostate specific antigen (PSA) secretion of LNCaP cells.
(11). Testosterone culture medium: RIPM 1640 culture medium, 10% CS-FBS, 1% Pen Strep, 1 nM testosterone
LNCaP cells were subcultured in cell culture medium, resuspended in active carbon culture medium, and then inoculated into a 96-well plate (100 μl/well) with an inoculation density of 5×10^4 cells/well.
The test compounds were dissolved in DMSO (dimethyl sulfoxide) and prepared as a 10 mM stock solution. When used, the stock solution was diluted with 5×DMSO and then diluted with a threefold gradient to obtain 8 gradient concentrations. Then, the 8 gradient concentrations were each diluted with 20× testosterone culture medium, in order to ensure DMSO concentration in each culture system was 0.5%. Diluted test compounds remained to be tested.
10 μl of diluted test compounds were added to a 96-well plate and mixed gently. 10 μl of 0.5% DMSO diluted with active carbon culture medium was added to the blank group, and 10 μl of 0.5% DMSO diluted with testosterone culture medium was added to the control group. The 96-well plate was cultured in an incubator under the conditions of 37° C. and 5% CO2.
After 4 days of incubation, 60 μl of cell cultural supernatants were collected, and the OD450 value per well was measured on a NOVO Star microplate reader using PSA kit (Abnova, KA0208).
(§1) IC50 values were calculated from the data of the inhibition rates of the test compounds at various concentrations.

LNCaP cells = test: Proliferation inhibition of LNCaP cells (CCK-8); type: cell-based; conditions: Homo sapiens, 144 h, cultured 3 + 3 days, CCK-8, OD at 450 nm
Protocol: The following in vitro assay was performed to determine the activity of the compounds of the present invention for inhibiting the proliferation of LNCaP cells.
(1). Cell counting reagent CCK-8 (DOJINDO, CK04)
See experimental procedure from Test Example 1.
After LNCaP cells were cultured for 3 days, the culture medium, test compounds, blank group, and control group were renewed with half of the liquid volume, and were cultured for another 3 days. Then, all 96-well plates were mixed gently with 10 μl of CCK-8 and cultured in an incubator for 2-3 hours under the conditions of 37° C. and 5% CO2. The OD value per well was measured at 450 nm on a Victor3 microplate reader.
as §1

[2] = Pharmacokinetics assay in rats, intragastric administration; type: in vivo; conditions: Sprague-Dawley, rat, in vivo, po, male SD rats, 5 mg/kg; for Vd/F: read-out: Apparent Distribution Volume Vz/F; for AUC: read-out: Area Under Curve AUC; for CL/F: read-out: Clearance CLz/F; for half-life: read-out: Half-Life T½ (converted); for MRT: read-out: Mean Residence Time MRT; for Cmax: read-out: Plasma Conc. Cmax
Protocol: Male rats were used as test animals. The compounds of Example 6, Example 9, Example 11, Example 13, Example 15, Example 16, Example 17, Example 44, and Example 45 were administered intragastrically to rats to determine the drug concentration in plasma at different time points by LC/MS/MS method. The pharmacokinetic behavior of the compounds of the present invention was studied and evaluated in rats.
27 healthy adult male Sprague-Dawley (SD) rats, purchased from SINO-BRITISH SIPPR/BK LAB. ANIMAL LTD., CO, Certificate No.: SCXK (Shanghai) 2008-0016, were divided into 9 groups, with 3 rats in each group.
The appropriate amount of test compounds was weighed and mixed with 0.5% CMC-Na to prepare a 0.5 mg/mL suspension by an ultrasonic method.
After an overnight fast, 27 SD rats were divided into 9 groups, and administered the compounds intragastrically at a dose of 5.0 mg/kg and an administration volume of 10 mL/kg.
Compounds of Example 6, Example 9, Example 11, Example 13, Example 15, Example 16, Example 17, Example 44, and Example 45 were administered intragastrically to rats. Blood samples (0.1 mL) were taken from the orbital sinus before administration, and at 0.5 h, 1.0 h, 2.0 h, 3.0 h, 4.0 h, 6.0 h, 8.0 h, 11.0 h, and 24.0 h after administration, stored in heparinized tubes, and centrifuged for 5 minutes at 3,500 rpm to separate blood plasma. The plasma samples were stored at −20° C. The rats were fed 2 hours after administration.
The concentration of the different test compounds in rat plasma after intragastrically administering the test compounds was determined by LC-MS/MS method. The linearity of the method is 1.00-2000 ng/ml. Plasma samples were analyzed after protein precipitation was accomplished by the addition of methanol.

[3] = LNCaP cells, 1 nM testosterone medium, 4 days of incubation, PSA kit OD450

CC1(C)C(=O)N(c2ccc(C#N)c(Cl)c2)C(=S)N1c1ccc(OCC2(N)CC2)c(F)c1 [Example 35, 4-(3-(4-((1-Aminocyclopropyl)methoxy)-3-fluorophenyl)-4,4-dimethyl-5-oxo-2-thioxoimidazolidin-1-yl)-2-chlorobenzonitrile]
IC50 [1, 3]: 57 nM
IC50 (LNCaP cells): 277 nM

CNC(=O)C1(COc2ccc(N3C(=S)N(c4ccc(C#N)c(C(F)(F)F)c4)C(=O)C3(C)C)cc2F)CC1 [Example 34, 1-((4-(3-(4-Cyano-3-(trifluoromethyl)phenyl)-5,5-dimethyl-4-oxo-2-thioxoimidazolidin-1-yl)-2-fluorophenoxy)methyl)-N-methylcyclopropanecarboxamide]
IC50 [1, 3]: 51 nM
IC50 (LNCaP cells): 159 nM

CC1(C)C(=O)N(c2ccc(C#N)c(C(F)(F)F)c2)C(=S)N1c1ccc(OCC2CCOC2)nc1 (stereo not shown) [Example 25, 4-(4,4-Dimethyl-5-oxo-3-(6-((tetrahydrofuran-3-yl)methoxy)pyridin-3-yl)-2-thioxoimidazolidin-1-yl)-2-(trifluoromethyl)benzonitrile]
IC50 [1, 3]: 31 nM
IC50 (LNCaP cells): 111 nM

CC1(C)C(=O)N(c2ccc(C#N)c(C(F)(F)F)c2)C(=S)N1c1ccc(O[C@@H]2CCOC2)nc1 [Example 21, (R)-4-(4,4-Dimethyl-5-oxo-3-(6-((tetrahydrofuran-3-yl)oxy)pyridin-3-yl)-2-thioxoimidazolidin-1-yl)-2-(trifluoromethyl)benzonitrile]
IC50 [1, 3]: 76 nM
IC50 (LNCaP cells): 92 nM

CC1(C)C(=O)N(c2ccc(C#N)c(C(F)(F)F)c2)C(=S)N1c1ccc(OC[C@H](O)CO)c(F)c1 [Example 50, (R)-4-(3-(4-(2,3-Dihydroxypropoxy)-3-fluorophenyl)-4,4-dimethyl-5-oxo-2-thioxoimidazolidin-1-yl)-2-(trifluoromethyl)benzonitrile]
IC50 ([1]; LNCaP): 43 nM

CC1(C)C(=O)N(c2ccc(C#N)c(C(F)(F)F)c2)C(=S)N1c1ccc(OC(F)F)nc1 [Example 30, 4-(3-(6-(Difluoromethoxy)pyridin-3-yl)-4,4-dimethyl-5-oxo-2-thioxoimidazolidin-1-yl)-2-(trifluoromethyl)benzonitrile]
IC50 [1, 3]: 17 nM
IC50 (LNCaP cells): 58 nM

CC1(C)C(=O)N(c2ccc(C#N)c(C(F)(F)F)c2)C(=S)N1c1ccc(O[C@@H]2COC[C@H]2O)cc1 (racemic) [Example 14, 4-(3-(4-(((3R,4R/3S,4S)-4-Hydroxytetrahydrofuran-3-yl)oxy)phenyl)-4,4-dimethyl-5-oxo-2-thioxoimidazolidin-1-yl)-2-(trifluoromethyl)benzonitrile]
IC50 ([1]; LNCaP): 19 nM

CN1CC[C@H](Oc2ccc(N3C(=S)N(c4ccc(C#N)c(C(F)(F)F)c4)C(=O)C3(C)C)cc2F)C1 [Example 27, (S)-4-(3-(3-Fluoro-4-((1-methylpyrrolidin-3-yl)oxy)phenyl)-4,4-dimethyl-5-oxo-2-thioxoimidazolidin-1-yl)-2-(trifluoromethyl)benzonitrile]
IC50 [1, 3]: 83 nM

CN1CC(O)C(Oc2ccc(N3C(=S)N(c4ccc(C#N)c(C(F)(F)F)c4)C(=O)C3(C)C)cc2F)C1 (stereo not shown) [Example 47, 4-(3-(3-Fluoro-4-((4-hydroxy-1-methylpyrrolidin-3-yl)oxy)phenyl)-4,4-dimethyl-5-oxo-2-thioxoimidazolidin-1-yl)-2-(trifluoromethyl)benzonitrile]
IC50 [1, 3]: 21 nM

CC1(C)C(=O)N(c2ccc(C#N)c(C(F)(F)F)c2)C(=S)N1c1ccc(OC[C@@H](O)CO)c(F)c1 [Example 49, (S)-4-(3-(4-(2,3-Dihydroxypropoxy)-3-fluorophenyl)-4,4-dimethyl-5-oxo-2-thioxoimidazolidin-1-yl)-2-(trifluoromethyl)benzonitrile]
IC50 ([1]; LNCaP): 35 nM

CC1(C)C(=O)N(c2ccc(C#N)c(C(F)(F)F)c2)C(=S)N1c1ccc(OCC2(N)CC2)nc1 [Example 11, 4-(3-(6-((1-Aminocyclopropyl)methoxy)pyridin-3-yl)-4,4-dimethyl-5-oxo-2-thioxoimidazolidin-1-yl)-2-(trifluoromethyl)benzonitrile]
IC50 ([1]; LNCaP): 35 nM
Vd/F [2]: 9.94 ± 0.633 L/kg
AUC [2]: 11400 ± 1380 ng·h/mL
CL/F [2]: 7.35 ± 0.87 mL/min/kg
half-life [2]: 15.8 ± 2.2 h
MRT [2]: 23.2 ± 2.9 h
Cmax [2]: 430 ± 14 ng/mL

CC1(C)C(=O)N(c2ccc(C#N)c(C(F)(F)F)c2)C(=S)N1c1ccc(O[C@H]2COC[C@@H]2O)cc1 [Example 16, 4-(3-(4-(((3S,4S)-4-hydroxytetrahydrofuran-3-yl)oxy)phenyl)-4,4-dimethyl-5-oxo-2-thioxoimidazolidin-1-yl)-2-(trifluoromethyl)benzonitrile]
IC50 ([1]; LNCaP): 12 nM
Vd/F [2]: 3.59 ± 0.662 L/kg
AUC [2]: 23300 ± 5900 ng·h/mL
CL/F [2]: 3.71 ± 0.84 mL/min/kg
half-life [2]: 11.3 ± 1.3 h
MRT [2]: 18.4 ± 2.6 h
Cmax [2]: 971 ± 147 ng/mL

CC1(C)C(=O)N(c2ccc(C#N)c(C(F)(F)F)c2)C(=S)N1c1ccc(O[C@@H]2COC[C@H]2O)c(F)c1 (racemic) [Example 7, 4-(3-(3-Fluoro-4-(((3R,4R/3S,4S)-4-hydroxytetrahydrofuran-3-yl)oxy)phenyl)-4,4-dimethyl-5-oxo-2-thioxoimidazolidin-1-yl)-2-(trifluoromethyl)benzonitrile]
IC50 ([1]; LNCaP): 23 nM

CC1(C)C(=O)N(c2ccc(C#N)c(C(F)(F)F)c2)C(=S)N1c1ccc(OCCO)cc1 [Example 17, 4-(3-(4-(2-Hydroxyethoxy)phenyl)-4,4-dimethyl-5-oxo-2-thioxoimidazolidin-1-yl)-2-(trifluoromethyl)benzonitrile]
IC50 ([1]; LNCaP): 24 nM
Vd/F [2]: 3.76 ± 0.591 L/kg
AUC [2]: 12200 ± 1520 ng·h/mL
CL/F [2]: 6.88 ± 0.89 mL/min/kg
half-life [2]: 6.31 ± 0.5 h
MRT [2]: 10.8 ± 0.8 h
Cmax [2]: 864 ± 86 ng/mL

Cc1cc(N2C(=O)C(C)(C)N(c3ccc(OCC4(N)CC4)c(F)c3)C2=S)ccc1C#N [Example 38, 4-(3-(4-((1-Aminocyclopropyl)methoxy)-3-fluorophenyl)-4,4-dimethyl-5-oxo-2-thioxoimidazolidin-1-yl)-2-methylbenzonitrile]
IC50 [1, 3]: 33 nM

CC1(C)C(=O)N(c2ccc(C#N)c(C(F)(F)F)c2)C(=S)N1c1ccc(OC2CCOCC2)c(F)c1 [Example 4, 4-(3-(3-Fluoro-4-((tetrahydro-2H-pyran-4-yl)oxy)phenyl)-4,4-dimethyl-5-oxo-2-thioxoimidazolidin-1-yl)-2-(trifluoromethyl)benzonitrile]
IC50 [1, 3]: 93 nM

CC(=O)N1CC(O)C(Oc2ccc(N3C(=S)N(c4ccc(C#N)c(C(F)(F)F)c4)C(=O)C3(C)C)cc2F)C1 (stereo not shown) [Example 46, 4-(3-(4-((1-Acetyl-4-hydroxypyrrolidin-3-yl)oxy)-3-fluorophenyl)-4,4-dimethyl-5-oxo-2-thioxoimidazolidin-1-yl)-2-(trifluoromethyl)benzonitrile]
IC50 [1, 3]: 47 nM
